# Test results taken from ChEMBL document CHEMBL1806468, “A facile synthesis of 1,5-disubstituted-2-aminoimidazoles: antibiotic activity of a first generation library” (2011).
# Active and inactive are the calls of the source. The rule behind the calls is not given here.
# How the values were obtained:
# [1] = test system: Acinetobacter baumannii; test: Inhibition of Acinetobacter baumannii BAA-1605 biofilm formation after 24 hrs by crystal violet reporter assay; format: functional; as to INH: test concentration or dose not given here
# [2] = test system: Staphylococcus aureus; test: Antimicrobial activity against methicillin-susceptible Staphylococcus aureus ATCC 29213 after 16 hrs by broth microdilution method; format: functional; conditions: ATCC 29213, 16 h
# [3] = test system: Acinetobacter baumannii; test: Antimicrobial activity against multidrug-resistant Acinetobacter baumannii BAA-1605 after 16 hrs by broth microdilution method; format: functional; conditions: BAA-1605, 16 h
# [4] = test system: Escherichia coli; test: Antimicrobial activity against Escherichia coli ATCC 35695 after 16 hrs by broth microdilution method; format: functional; conditions: ATCC 35695, 16 h
# [5] = test system: Acinetobacter baumannii; test: Inhibition of Acinetobacter baumannii ATCC 19606 biofilm formation after 24 hrs by crystal violet reporter assay; format: functional, ATCC 19606 = CIP 70.34 = JCM 6841; also: test concentration or dose not given here
# [6] = test system: Staphylococcus epidermidis; test: Antimicrobial activity against Staphylococcus epidermidis ATCC 29886 after 16 hrs by broth microdilution method; format: functional; conditions: ATCC 29886, 16 h
# [7] = test system: Staphylococcus aureus; test: Inhibition of Staphylococcus aureus ATCC 29213 biofilm formation after 24 hrs by crystal violet reporter assay; format: functional; also: test concentration or dose not given here
# [8] = test system: Staphylococcus aureus; test: Antimicrobial activity against methicillin-resistant Staphylococcus aureus BAA-44 after 16 hrs by broth microdilution method; format: functional; conditions: BAA-44, 16 h
# [9] = test system: Staphylococcus aureus; test: Inhibition of Staphylococcus aureus BAA-44 biofilm formation after 24 hrs by crystal violet reporter assay; format: functional; also: test concentration or dose not given here
# [10] = test system: Acinetobacter baumannii; test: Antimicrobial activity against Acinetobacter baumannii ATCC 19606 after 16 hrs by broth microdilution method; format: functional; conditions: ATCC 19606 = CIP 70.34 = JCM 6841, 16 h
# [11] = test system: Klebsiella pneumoniae; test: Antimicrobial activity against carbapenem-resistant Klebsiella pneumoniae BAA-2146 expressing […] gene after 16 hrs by broth microdilution method; format: functional; conditions: BAA-2146, 16 h
# [12] = test system: Staphylococcus epidermidis; test: Antimicrobial activity against methicillin-resistant Staphylococcus epidermidis ATCC 51625 after 16 hrs by broth microdilution method; format: functional; conditions: ATCC 51625, 16 h
# [13] = test system: Escherichia coli; test: Inhibition of Escherichia coli ATCC 35695 biofilm formation after 24 hrs by crystal violet reporter assay; format: functional; also: test concentration or dose not given here
SMILES,inhibition (INH) [1],MIC [2],MIC [3],MIC [4],inhibition (INH) [5],MIC [6],inhibition (INH) [7],MIC [8],inhibition (INH) [9],MIC [10],MIC [11],MIC [12],inhibition (INH) [13],inhibition [1]
Cl.Nc1ncc(Cc2ccccc2)n1CCCc1ccccc1,94%,32 µg/mL,32 µg/mL,32 µg/mL,96%,16 µg/mL,98%,32 µg/mL,90%,32 µg/mL,128 µg/mL,16 µg/mL,97%,
CCCCCCCCn1c(CC(C)C)cnc1N.Cl,96%,16 µg/mL,16 µg/mL,2 µg/mL,97%,2 µg/mL,93%,8 µg/mL,97%,16 µg/mL,64 µg/mL,8 µg/mL,88%,
CC(C)Cc1cnc(N)n1CCCc1ccccc1.Cl,97%,64 µg/mL,32 µg/mL,16 µg/mL,96%,4 µg/mL,87%,32 µg/mL,96%,32 µg/mL,128 µg/mL,32 µg/mL,92%,
CCCCCCCCn1c(CCCCCC)cnc1N.Cl,,2 µg/mL,8 µg/mL,2 µg/mL,,0.125 µg/mL,,2 µg/mL,,8 µg/mL,32 µg/mL,2 µg/mL,,
CCCCCCc1cnc(N)n1CCCCC.Cl,,32 µg/mL,64 µg/mL,32 µg/mL,97%,8 µg/mL,92%,32 µg/mL,98%,64 µg/mL,64 µg/mL,32 µg/mL,97%,inactive
Cl.Nc1ncc(-c2ccccc2)n1Cc1ccccc1,97%,8 µg/mL,16 µg/mL,8 µg/mL,96%,2 µg/mL,93%,4 µg/mL,95%,128 µg/mL,128 µg/mL,8 µg/mL,89%,
Cl.Nc1ncc(CCCCNC(=O)OCc2ccccc2)n1CCCc1ccccc1,,16 µg/mL,32 µg/mL,64 µg/mL,,16 µg/mL,,16 µg/mL,,32 µg/mL,128 µg/mL,16 µg/mL,,
Cl.Nc1ncc(Cc2ccccc2)n1Cc1ccccc1,,> 128 µg/mL,> 128 µg/mL,128 µg/mL,,128 µg/mL,,> 128 µg/mL,,> 128 µg/mL,> 128 µg/mL,128 µg/mL,,
CCCCCCCCCCn1c(CCCCCC)cnc1N.Cl,97%,1 µg/mL,8 µg/mL,1 µg/mL,91%,0.25 µg/mL,73%,1 µg/mL,83%,8 µg/mL,32 µg/mL,1 µg/mL,59%,
CC(C)Cc1cnc(N)n1Cc1ccccc1.Cl,,128 µg/mL,128 µg/mL,128 µg/mL,,16 µg/mL,,128 µg/mL,,128 µg/mL,128 µg/mL,128 µg/mL,,
CCCCCCCCn1c(Cc2ccccc2)cnc1N.Cl,,128 µg/mL,128 µg/mL,128 µg/mL,,128 µg/mL,,128 µg/mL,,128 µg/mL,> 128 µg/mL,128 µg/mL,,
CCCCCCc1cnc(N)n1Cc1ccccc1.Cl,,16 µg/mL,16 µg/mL,32 µg/mL,,16 µg/mL,,32 µg/mL,,16 µg/mL,64 µg/mL,16 µg/mL,,
CCCCCn1c(Cc2ccccc2)cnc1N.Cl,,64 µg/mL,64 µg/mL,64 µg/mL,,32 µg/mL,,128 µg/mL,,64 µg/mL,128 µg/mL,64 µg/mL,,
CCCCCn1c(CCCCNC(=O)OCc2ccccc2)cnc1N.Cl,,32 µg/mL,128 µg/mL,32 µg/mL,,16 µg/mL,,128 µg/mL,,128 µg/mL,> 128 µg/mL,64 µg/mL,,
Cl.Nc1ncc(-c2ccccc2)n1CCCc1ccccc1,97%,32 µg/mL,32 µg/mL,32 µg/mL,97%,8 µg/mL,95%,32 µg/mL,94%,32 µg/mL,128 µg/mL,32 µg/mL,94%,
CCCCCCCCCCCCn1c(CCCCCC)cnc1N.Cl,,2 µg/mL,> 128 µg/mL,2 µg/mL,,0.5 µg/mL,,2 µg/mL,,64 µg/mL,> 128 µg/mL,1 µg/mL,,
CCCCCCCCn1c(-c2ccccc2)cnc1N.Cl,,64 µg/mL,64 µg/mL,64 µg/mL,,16 µg/mL,,64 µg/mL,,16 µg/mL,128 µg/mL,64 µg/mL,,
CCCCCn1c(-c2ccccc2)cnc1N.Cl,,64 µg/mL,64 µg/mL,128 µg/mL,,16 µg/mL,,64 µg/mL,,64 µg/mL,> 128 µg/mL,128 µg/mL,,
CCCCCCCCn1c(CCCCNC(=O)OCc2ccccc2)cnc1N.Cl,91%,16 µg/mL,64 µg/mL,8 µg/mL,93%,2 µg/mL,91%,16 µg/mL,84%,64 µg/mL,128 µg/mL,16 µg/mL,90%,
CCCCCCc1cnc(N)n1CCCc1ccccc1.Cl,98%,8 µg/mL,32 µg/mL,8 µg/mL,96%,4 µg/mL,98%,8 µg/mL,91%,16 µg/mL,64 µg/mL,16 µg/mL,94%,
CCCCCn1c(CC(C)C)cnc1N.Cl,,> 128 µg/mL,64 µg/mL,64 µg/mL,,32 µg/mL,,128 µg/mL,,64 µg/mL,128 µg/mL,128 µg/mL,,
Cl.Nc1ncc(CCCCNC(=O)OCc2ccccc2)n1Cc1ccccc1,,32 µg/mL,64 µg/mL,64 µg/mL,,32 µg/mL,,32 µg/mL,,64 µg/mL,128 µg/mL,32 µg/mL,,
